The record followed here is ChEMBL document CHEMBL1759859, “Sargachromanols as inhibitors of Na+/K+ ATPase and isocitrate lyase” (Bioorg Med Chem Lett, 2011).

pIC50: −log10 of the molar value. ≈ marks a conversion by molar mass, not a printed value. Calls of active or inactive are those of the source. The rule behind the calls is not given here.

One assay addresses Isocitrate lyase (Candida albicans, UniProt Q9P8Q7). The assay is described as follows: Inhibition of Candida albicans ICL assessed as formation of glyoxylate phenylhydrazone by spectrophotometry.
Another assay concerns Aspergillus fumigatus. In words: Antifungal activity against Aspergillus fumigatus HIC 6094 at 100 ug/ml after 2 weeks. The class given is functional, organism-based.
The subject of a further assay is Candida albicans. The assay is described as follows: Antifungal activity against Candida albicans ATCC 10231 at 100 ug/ml after 2 weeks. The class given is functional, organism-based.
Assay [1] has as its system Trichophyton mentagrophytes. In words: Antifungal activity against Trichophyton mentagrophytes IFO 40996 at 100 ug/ml after 2 weeks. Type of assay: functional, organism-based.
Assay [2] is described as follows: Inhibition of porcine cerebral cortex Na+/K+ ATPase by spectrophotometry. The class given is tissue-based, Sus scrofa.
Another assay relates to Trichophyton rubrum. The assay is described as follows: Antifungal activity against Trichophyton rubrum IFO 9185 at 100 ug/ml after 2 weeks. Type of assay: functional, organism-based.
A further assay relates to Salmonella typhimurium. The assay is described as follows: Antibacterial activity against Salmonella Typhimurium ATCC 14028 after 24 hrs by broth dilution method. As to conditions: Salmonella enterica, ATCC 14028, 24 h. The class given is functional, Salmonella enterica subsp. enterica serovar Typhimurium.
The next assay concerns Bacillus subtilis. The assay is described as follows: Antibacterial activity against Bacillus subtilis ATCC 6633 after 24 hrs by broth dilution method. Type of assay: functional. As to conditions: ATCC 6633, 24 h. Background: Broth dilution looks for growth in wells or tubes with falling amounts of substance.
For a further assay, the system named is Proteus vulgaris. The assay is described as follows: Antibacterial activity against Proteus vulgaris ATCC 3851 after 24 hrs by broth dilution method. The class given is functional. Particulars: ATCC 3851, 24 h.
The next assay has as its system Micrococcus luteus. The assay is described as follows: Antibacterial activity against Micrococcus luteus IFC 12708 after 24 hrs by broth dilution method. The class given is functional. As to conditions: IFC 12708, 24 h.

Sequence of Isocitrate lyase (Q9P8Q7 whole entry): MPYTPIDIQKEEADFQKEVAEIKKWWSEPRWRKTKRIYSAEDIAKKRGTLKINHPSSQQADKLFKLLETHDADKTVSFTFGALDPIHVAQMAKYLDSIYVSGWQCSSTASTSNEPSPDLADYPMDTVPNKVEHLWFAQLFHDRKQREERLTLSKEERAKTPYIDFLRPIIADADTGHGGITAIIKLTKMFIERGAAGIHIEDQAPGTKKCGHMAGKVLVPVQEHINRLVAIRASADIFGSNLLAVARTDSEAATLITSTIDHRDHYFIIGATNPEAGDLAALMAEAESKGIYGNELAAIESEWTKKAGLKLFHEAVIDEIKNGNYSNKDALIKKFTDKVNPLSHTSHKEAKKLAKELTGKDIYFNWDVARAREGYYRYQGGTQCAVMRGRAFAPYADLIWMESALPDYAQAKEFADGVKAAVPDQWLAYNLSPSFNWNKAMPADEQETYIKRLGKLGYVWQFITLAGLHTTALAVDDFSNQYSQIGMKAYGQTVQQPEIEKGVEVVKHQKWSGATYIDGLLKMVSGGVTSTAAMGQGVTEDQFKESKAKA

With `CC(C)=C[C@H](O)[C@@H](O)/C(C)=C/CC/C(C)=C/CC[C@]1(C)CCc2cc(O)cc(C)c2O1` [SARGACHROMANOL E], the pIC50 at Isocitrate lyase is less than 3.33. As for `CC(C)=CC(=O)[C@@H](O)/C(C)=C/CC/C(C)=C/CC[C@]1(C)CCc2cc(O)cc(C)c2O1` [SARGACHROMANOL K], the negative logarithm of the IC50 (pIC50) at Isocitrate lyase is less than 3.33.

As to `C/C(=C\CC/C(C)=C/CC[C@]1(C)CCc2cc(O)cc(C)c2O1)CO` [SARGACHROMANOL B], the pIC50 at Isocitrate lyase is less than 3.24. As for `CC(C)=C[C@@H](O)C(=O)/C(C)=C/CC/C(C)=C/CC[C@]1(C)CCc2cc(O)cc(C)c2O1` [SARGACHROMANOL G], on Isocitrate lyase, the negative logarithm of the IC50 (pIC50) was less than 3.33. Still for that read-out and setting: next, `CC(C)=C[C@@H](O)[C@@H](O)/C(C)=C/CC/C(C)=C/CC[C@]1(C)CCc2cc(O)cc(C)c2O1` [SARGACHROMANO D]: less than 3.33; `CC(C)=C[C@@H](O)C(=O)C(C)CCC/C(C)=C/CC[C@]1(C)CCc2cc(O)cc(C)c2O1` (stereo partly drawn) [SARGACHROMANOL I]: less than 3.33; `COC(/C(C)=C/CC/C(C)=C/CC[C@]1(C)CCc2cc(O)cc(C)c2O1)[C@H](O)C=C(C)C` (stereo partly drawn) [SARGACHROMANOL F]: less than 3.35. Take `C[C@@H]1O[C@@H](O[C@H]2C[C@@H](O)[C@]3(CO)[C@H]4[C@H](O)C[C@]5(C)[C@@H](C6=CC(=O)OC6)CC[C@]5(O)[C@@H]4CC[C@]3(O)C2)[C@H](O)[C@H](O)[C@H]1O` [OUABAIN]: the inhibition entry (with Aspergillus fumigatus; in the assay on Candida albicans; in assay [1]; with Trichophyton rubrum) was “inactive” in each case. Moreover, the negative-log IC50 (pIC50) in assay [2] was 5.34. With `C/C(=C\CC[C@]1(C)CCc2cc(O)cc(C)c2O1)C/C=C\C(C)C(=O)[C@H](O)CC(C)C` (stereo partly drawn) [SARGACHROMANOL H], the negative logarithm of the IC50 (pIC50) on Isocitrate lyase is less than 3.33. For `O=C(O)CC[N+](=O)[O-]`, the inhibition result (in the assay with Aspergillus fumigatus; with Candida albicans; in assay [1]; with Trichophyton rubrum) was “inactive” each time. Take `C/C(=C\CC[C@]1(C)CCc2cc(O)cc(C)c2O1)CCCC(C)C(=O)[C@@H](O)CC(C)C` (stereo partly drawn) [SARGACHROMANOL J]: on Isocitrate lyase, the pIC50 is less than 3.33. With `CC(C)=C/C(C=O)=C(\C)CCC/C(C)=C/CC[C@]1(C)CCc2cc(O)cc(C)c2O1` [SARGACHROMANO N], the pIC50 on Isocitrate lyase was less than 3.31. As for `C/C(C=O)=C\CC/C(C)=C/CC[C@]1(C)CCc2cc(O)cc(C)c2O1` [SARGACHROMANOL A], at Isocitrate lyase, the negative logarithm of the IC50 (pIC50) was 3.73. Consider `CC(C)=C/C(C=O)=C(/C)CCC/C(C)=C/CC[C@]1(C)CCc2cc(O)cc(C)c2O1` [SARGACHROMANOL M], for which the pIC50 on Isocitrate lyase was 3.76. With `CC(C)=C[C@@H]1C(=O)C(C)=C[C@H]1C/C(C)=C/CC[C@]1(C)CCc2cc(O)cc(C)c2O1` [SARGACHROMANOL P], the negative-log IC50 (pIC50) at Isocitrate lyase was 3.83.

Turning to `CC(C)=CC(C(=O)O)/C(C)=C/CC/C(C)=C/CC[C@]1(C)CCc2cc(O)cc(C)c2O1` (stereo partly drawn) [SARGACHROMANOL O], the pIC50 at Isocitrate lyase was less than 3.33.

Consider `CC1(C)S[C@@H]2[C@H](NC(=O)[C@H](N)c3ccccc3)C(=O)N2[C@H]1C(=O)O` [AMPICILLIN], for which the inhibition result (in the assay on Aspergillus fumigatus; with Candida albicans; in [1]; in the assay with Trichophyton rubrum) was “inactive” each time. Further, the minimum inhibitory concentration (MIC) against Salmonella typhimurium, with Bacillus subtilis, in the assay with Proteus vulgaris and in the assay with Micrococcus luteus was 0.78 µg/mL (≈ 2.23 µM) in each case. As for `CC(C)=CC(CO)/C(C)=C/CC/C(C)=C/CC[C@]1(C)CCc2cc(O)cc(C)c2O1` (stereo partly drawn) [SARGACHROMANOL L], on Isocitrate lyase, the pIC50 was 3.93. The same measure, in the same setting: next, `CC(C)=CC[C@@H](O)/C(C)=C/CC/C(C)=C/CC[C@]1(C)CCc2cc(O)cc(C)c2O1` [SARGACHROMANOL C]: less than 3.31.

One may read the pIC50 as the negative decadic logarithm of the IC50, by convention in mol/L. As usually defined, the MIC is the least concentration at which growth counts as inhibited. High values mean weaker potency, low ones greater potency.
